Measured values reported in patent US10336792B2, “Antimicrobial peptide dendrimers” (priority 2014, dated 2019).
In brackets after ≈: the same amount, converted by molar mass. Positions of bridges follow the written chain, without caps; N, C: chain ends. Non-standard residues stand in square brackets, D forms with d. Residues, ends and D or L forms follow the SMILES beside them. Groups on a side chain read outwards from the residue. Chains are numbered I, II in the order given. *: point of attachment. Stearoyl = CCCCCCCCCCCCCCCCCC(=O)*; Dab = NCC[C@H](N)C(=O)O; Hexanoyl = CCCCCC(=O)*

Experiments:
Format in all cases: cell-based
[1] = test system: Pseudomonas aeruginosa (strain PA01); assay: microbe, parasite or virus in culture; settings: strain
Summary of the method: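 P. aeruginosa PAO1 grown overnight in LB, diluted to OD600 0.001 and mixed with ⅔-step peptide dilutions, then incubated at 37 °C for 18–24 h. After MTT staining, the lowest concentration with no visible growth was read by eye as the MIC.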

[2] = test system: Escherichia coli (strain DH5α); settings: DH5α
Summary of the method: (§1)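 Broth microdilution MIC in LB; overnight cultures diluted to OD600 0.001 and mixed 1:1 with ⅔-serially diluted samples (stock 1 mg mL^−1 in H2O), 37° C for 18-24 h. MTT (0.1%) added; MIC read by eye as lowest concentration inhibiting visible growth (yellow).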

[3] = test system: Bacillus subtilis (strain BR151); settings: strain BR151
Summary of the method: as §1

MIC P. aeruginosa PAO1 [1] | MIC E. coli DH5α [2] | MIC B. subtilis BR151 [3] | Structure (SMILES)
1 µg/mL (≈ 0.21 µM) | 1 µg/mL (≈ 0.21 µM) | 5 µg/mL (≈ 1.05 µM) | CCCCCC(=O)NCCCC[C@H](NC(=O)[C@H](CC(C)C)NC(=O)[C@H](CCCCN)NC(=O)[C@H](CCCCNC(=O)[C@H](CC(C)C)NC(=O)[C@H](CCCCN)NC(=O)[C@H](CCCCNC(=O)[C@H](CC(C)C)NC(=O)[C@H](CCCCN)NC(=O)[C@H](CCCCNC(=O)[C@H](CC(C)C)NC(=O)[C@@H](N)CCCCN)NC(=O)[C@H](CC(C)C)NC(=O)[C@@H](N)CCCCN)NC(=O)[C@H](CC(C)C)NC(=O)[C@H](CCCCN)NC(=O)[C@H](CCCCNC(=O)[C@H](CC(C)C)NC(=O)[C@@H](N)CCCCN)NC(=O)[C@H](CC(C)C)NC(=O)[C@@H](N)CCCCN)NC(=O)[C@H](CC(C)C)NC(=O)[C@H](CCCCN)NC(=O)[C@H](CCCCNC(=O)[C@H](CC(C)C)NC(=O)[C@H](CCCCN)NC(=O)[C@H](CCCCNC(=O)[C@H](CC(C)C)NC(=O)[C@@H](N)CCCCN)NC(=O)[C@H](CC(C)C)NC(=O)[C@@H](N)CCCCN)NC(=O)[C@H](CC(C)C)NC(=O)[C@H](CCCCN)NC(=O)[C@H](CCCCNC(=O)[C@H](CC(C)C)NC(=O)[C@@H](N)CCCCN)NC(=O)[C@H](CC(C)C)NC(=O)[C@@H](N)CCCCN)C(N)=O [MSt-264, (KL)8(KKL)4(KKL)2(KKLKC6)] (I: H-KLK([Leu-Lys])KLKKLKKLK(Hexanoyl)-NH2 / II: H-KLK([Leu-Lys])KLKKL / III: H-KLK([Leu-Lys])KL / IV: H-KLK([Leu-Lys])KL; amide I:6-IV:C, I:9-II:C, II:6-III:C)
3 µg/mL (≈ 0.665 µM) | 2 µg/mL (≈ 0.443 µM) | 2 µg/mL (≈ 0.443 µM) | CC(C)C[C@H](NC(=O)[C@@H](N)CCN)C(=O)NCCCC[C@H](NC(=O)[C@H](CC(C)C)NC(=O)[C@@H](N)CCN)C(=O)N[C@@H](CCN)C(=O)N[C@@H](Cc1c[nH]c2ccccc12)C(=O)NCCCC[C@H](NC(=O)[C@H](Cc1c[nH]c2ccccc12)NC(=O)[C@H](CCN)NC(=O)[C@H](CCCCNC(=O)[C@H](CC(C)C)NC(=O)[C@@H](N)CCN)NC(=O)[C@H](CC(C)C)NC(=O)[C@@H](N)CCN)C(=O)N[C@@H](CCN)C(=O)N[C@@H](Cc1c[nH]c2ccccc12)C(=O)NCCCC[C@H](NC(=O)[C@H](Cc1c[nH]c2ccccc12)NC(=O)[C@H](CCN)NC(=O)[C@H](CCCCNC(=O)[C@H](Cc1c[nH]c2ccccc12)NC(=O)[C@H](CCN)NC(=O)[C@H](CCCCNC(=O)[C@H](CC(C)C)NC(=O)[C@@H](N)CCN)NC(=O)[C@H](CC(C)C)NC(=O)[C@@H](N)CCN)NC(=O)[C@H](Cc1c[nH]c2ccccc12)NC(=O)[C@H](CCN)NC(=O)[C@H](CCCCNC(=O)[C@H](CC(C)C)NC(=O)[C@@H](N)CCN)NC(=O)[C@H](CC(C)C)NC(=O)[C@@H](N)CCN)C(=O)N[C@@H](CCN)C(=O)N[C@@H](C)C(N)=O [MSt-205, (DabL)8(KDabW)4(KDabW)2(KDabA)] (I: H-[Dab]LK([Leu-Dab])[Dab]WK[Dab]WK[Dab]A-NH2 / II: H-[Dab]LK([Leu-Dab])[Dab]WK[Dab]W / III: H-[Dab]LK([Leu-Dab])[Dab]W / IV: H-[Dab]LK([Leu-Dab])[Dab]W; amide I:6-IV:C, I:9-II:C, II:6-III:C; N-terminus assumed)
4 µg/mL (≈ 1.61 µM) | 3 µg/mL (≈ 1.21 µM) | 4 µg/mL (≈ 1.61 µM) | CCCCCCCCCCCCCCCCCC(=O)NCCCC[C@H](NC(=O)[C@H](CC(C)C)NC(=O)[C@H](CCCCN)NC(=O)[C@H](CCCCNC(=O)[C@H](CC(C)C)NC(=O)[C@H](CCCCN)NC(=O)[C@H](CCCCNC(=O)[C@H](CC(C)C)NC(=O)[C@@H](N)CCCCN)NC(=O)[C@H](CC(C)C)NC(=O)[C@@H](N)CCCCN)NC(=O)[C@H](CC(C)C)NC(=O)[C@H](CCCCN)NC(=O)[C@H](CCCCNC(=O)[C@H](CC(C)C)NC(=O)[C@@H](N)CCCCN)NC(=O)[C@H](CC(C)C)NC(=O)[C@@H](N)CCCCN)C(N)=O [MSt-286, (KL)4(KKL)2(KKLKC18)] (I: H-KLK([Leu-Lys])KLKKLK(Stearoyl)-NH2 / II: H-KLK([Leu-Lys])KL; amide I:6-II:C; N-terminus assumed)
3 µg/mL (≈ 0.684 µM) | 4 µg/mL (≈ 0.912 µM) | 4 µg/mL (≈ 0.912 µM) | CC(C)C[C@H](NC(=O)[C@H](CCCCN)NC(=O)[C@H](CCCCNC(=O)[C@H](CC(C)C)NC(=O)[C@@H](N)CCCCN)NC(=O)[C@H](CC(C)C)NC(=O)[C@@H](N)CCCCN)C(=O)NCCCC[C@H](NC(=O)[C@H](CC(C)C)NC(=O)[C@H](CCCCN)NC(=O)[C@H](CCCCNC(=O)[C@H](CC(C)C)NC(=O)[C@@H](N)CCCCN)NC(=O)[C@H](CC(C)C)NC(=O)[C@@H](N)CCCCN)C(=O)N[C@@H](CCCCN)C(=O)N[C@@H](CC(C)C)C(=O)N[C@@H](CSSC[C@H](NC(=O)[C@H](CC(C)C)NC(=O)[C@H](CCCCN)NC(=O)[C@H](CCCCNC(=O)[C@H](CC(C)C)NC(=O)[C@H](CCCCN)NC(=O)[C@H](CCCCNC(=O)[C@H](CC(C)C)NC(=O)[C@@H](N)CCCCN)NC(=O)[C@H](CC(C)C)NC(=O)[C@@H](N)CCCCN)NC(=O)[C@H](CC(C)C)NC(=O)[C@H](CCCCN)NC(=O)[C@H](CCCCNC(=O)[C@H](CC(C)C)NC(=O)[C@@H](N)CCCCN)NC(=O)[C@H](CC(C)C)NC(=O)[C@@H](N)CCCCN)C(N)=O)C(N)=O [CCS-3 dimer, ((KL)4(KKL)2KKLC)2] (I: H-KLK([Leu-Lys])KLKKLC-NH2 / II: H-KLK([Leu-Lys])KLKKLC-NH2 / III: H-KLK([Leu-Lys])KL / IV: H-KLK([Leu-Lys])KL; amide I:6-III:C, II:6-IV:C; disulfide I:9-II:9; N-terminus assumed)
9 µg/mL (≈ 1.88 µM) | 13 µg/mL (≈ 2.72 µM) | 9 µg/mL (≈ 1.88 µM) | CC(C)C[C@H](NC(=O)[C@H](CCCNC(=N)N)NC(=O)[C@H](CCCCNC(=O)[C@H](CC(C)C)NC(=O)[C@@H](N)CCCNC(=N)N)NC(=O)[C@H](CC(C)C)NC(=O)[C@@H](N)CCCNC(=N)N)C(=O)NCCCC[C@H](NC(=O)[C@H](CC(C)C)NC(=O)[C@H](CCCNC(=N)N)NC(=O)[C@H](CCCCNC(=O)[C@H](CC(C)C)NC(=O)[C@@H](N)CCCNC(=N)N)NC(=O)[C@H](CC(C)C)NC(=O)[C@@H](N)CCCNC(=N)N)C(=O)N[C@@H](CCCNC(=N)N)C(=O)N[C@@H](CC(C)C)C(=O)N[C@@H](CSSC[C@H](NC(=O)[C@H](CC(C)C)NC(=O)[C@H](CCCNC(=N)N)NC(=O)[C@H](CCCCNC(=O)[C@H](CC(C)C)NC(=O)[C@H](CCCNC(=N)N)NC(=O)[C@H](CCCCNC(=O)[C@H](CC(C)C)NC(=O)[C@@H](N)CCCNC(=N)N)NC(=O)[C@H](CC(C)C)NC(=O)[C@@H](N)CCCNC(=N)N)NC(=O)[C@H](CC(C)C)NC(=O)[C@H](CCCNC(=N)N)NC(=O)[C@H](CCCCNC(=O)[C@H](CC(C)C)NC(=O)[C@@H](N)CCCNC(=N)N)NC(=O)[C@H](CC(C)C)NC(=O)[C@@H](N)CCCNC(=N)N)C(N)=O)C(N)=O [CCS-18 dimer, ((RL)4(KRL)2KRLC)2] (I: H-RLK([Leu-Arg])RLKRLC-NH2 / II: H-RLK([Leu-Arg])RLKRLC-NH2 / III: H-RLK([Leu-Arg])RL / IV: H-RLK([Leu-Arg])RL; amide I:6-III:C, II:6-IV:C; disulfide I:9-II:9; N-terminus assumed)
2 µg/mL (≈ 0.462 µM) | 2 µg/mL (≈ 0.462 µM) | 2 µg/mL (≈ 0.462 µM) | CC(C)C[C@H](NC(=O)[C@H](CCN)NC(=O)[C@H](CCCCNC(=O)[C@H](CC(C)C)NC(=O)[C@@H](N)CCN)NC(=O)[C@H](CC(C)C)NC(=O)[C@@H](N)CCN)C(=O)NCCCC[C@H](NC(=O)[C@H](CC(C)C)NC(=O)[C@H](CCN)NC(=O)[C@H](CCCCNC(=O)[C@H](CC(C)C)NC(=O)[C@@H](N)CCN)NC(=O)[C@H](CC(C)C)NC(=O)[C@@H](N)CCN)C(=O)N[C@@H](CCN)C(=O)N[C@@H](Cc1c[nH]c2ccccc12)C(=O)NCCCC[C@H](NC(=O)[C@H](Cc1c[nH]c2ccccc12)NC(=O)[C@H](CCN)NC(=O)[C@H](CCCCNC(=O)[C@H](CC(C)C)NC(=O)[C@H](CCN)NC(=O)[C@H](CCCCNC(=O)[C@H](CC(C)C)NC(=O)[C@@H](N)CCN)NC(=O)[C@H](CC(C)C)NC(=O)[C@@H](N)CCN)NC(=O)[C@H](CC(C)C)NC(=O)[C@H](CCN)NC(=O)[C@H](CCCCNC(=O)[C@H](CC(C)C)NC(=O)[C@@H](N)CCN)NC(=O)[C@H](CC(C)C)NC(=O)[C@@H](N)CCN)C(=O)N[C@@H](CCN)C(=O)N[C@@H](Cc1c[nH]c2ccccc12)C(N)=O [MSt-203, (DabL)8(KDabL)4(KDabW)2(KDabW)] (I: H-[Dab]LK([Leu-Dab])[Dab]LK[Dab]WK[Dab]W-NH2 / II: H-[Dab]LK([Leu-Dab])[Dab]LK[Dab]W / III: H-[Dab]LK([Leu-Dab])[Dab]L / IV: H-[Dab]LK([Leu-Dab])[Dab]L; amide I:6-IV:C, I:9-II:C, II:6-III:C; N-terminus assumed)
